According to patent US9284283B2, “Macrocyclic compounds for modulating IL-17” (ENSEMBLE THERAPEUTICS CORPORATION, priority 2012, dated 2016):
Values joined by “and” are separate entries in the source; they are usually repeats but may differ in a detail not shown here. Equal entries are not always repeated.

Molecular target: T1, IL17A (Homo sapiens, UniProt Q16552)
T1 sequence (Q16552 24-155): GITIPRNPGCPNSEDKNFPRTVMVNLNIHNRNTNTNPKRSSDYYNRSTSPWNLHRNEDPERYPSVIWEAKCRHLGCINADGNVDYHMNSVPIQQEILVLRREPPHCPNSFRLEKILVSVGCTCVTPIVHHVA
Test: Surface Plasmon Resonance (SPR) analysis of compound interactions with IL17A
Conditions: SPR binding to IL17A
Protocol: SPR analysis was carried out with a GE Healthcare (Piscataway, N.J.) Biacore X100 system. Typically, the chip (NTA Biacore Biosensor chip; GE Healthcare BR-1000-34) was first conditioned by injection of 0.35 M EDTA, which also served to remove any immobilized proteins from previous runs. Before immobilization of the recombinant 6-His-tagged IL17, the chip was washed with 0.5 mM nickel chloride in NTA buffer (10 mM HEPES buffer, 0.15 M sodium chloride, 10 μM ethylene diamine tetraacetic acid, 0.005% v/v surfactant P20 (GE Healthcare BR-1000-54)) to form a nickel chelate on the chip. IL17 protein was immobilized onto a NTA chip through its 6-His tag. IL17A was typically injected at 0.25 μM for 60-120 seconds, followed by a stabilization step washing with NTA+0.5% DMSO for 120 seconds or longer.
Five 2-fold or 3-fold serial dilutions of test compound were injected serially onto the chip. All steps were conducted using NTA buffer containing 0.5% v/v dimethylsulfoxide (DMSO). Compounds were diluted from stock solutions of 10 mM concentration in 100% DMSO with NTA buffer to obtain 50 μM solutions in NTA+0.5% DMSO. Subsequent 2× or 3× dilutions were made in NTA+0.5% DMSO. Compound was generally injected for 180 seconds followed by washing the chip in buffer alone for 120 seconds. The rate of refractive index change (RU units/time) and the maximum extend of RU change was measured during the “on” phase of analyte injection, followed by measuring the rate during the “off” phase.
Kinetic parameter fits were conducted using the Biacore SPR Evaluation Program (GE Healthcare) for 1:1 molecular binding fits, after subtracting the baseline average of 2 or more runs in which no analyte was injected. This program then reports the best fit average for the “on” rate (Ka), the “off” rate (Kd) and the dissociation constant (KD) (Chaiken, I et al., Anal Biochem 201, 197-210 (1992)). A separate program in the Biacore SPR Evaluation Program then calculates the best fit for Kd based upon the extent of binding alone (RU units bound) at each concentration of analyte and reports the best fit Kd by best fit to a Lineweaver-Burke plot. Typically, the Kd value calculated through both means agreed within a factor of three.
The presence and activity of IL17 on the NTA chip was routinely confirmed three ways: • 1) An increase in response units (RU) upon immobilization confirms that the IL17 was immobilized on the chip; • 2) Anti-IL17 was also injected on the chip to confirm the presence of IL17; and • 3) IL17R was injected onto the chip to confirm that the immobilized IL17 retained its binding activity for its receptor. Negative controls to access specificity for compound binding were conducted by immobilizing unrelated, but his-tagged, proteins (such as cyclophilin D) and conducting the same analysis as done with IL17A.

Kd | Compound
100 to 1000 nM | COC(=O)[C@H]1CCCCNC(=O)[C@H](CO)NC(=O)[C@@H](Cc2ccc(NC(=O)[C@H](Cc3ccccc3Cl)NC(=O)Cc3ccccc3)cc2)NC(=O)CC2(CCCC2)CC(=O)N1 [Compound 147]
100 to 1000 nM | COC(=O)[C@@H]1CCCCNC(=O)CCCNC(=O)[C@@H](Cc2ccc(NC(=O)[C@H](Cc3ccccc3C)NC(=O)c3ccccc3)cc2)NC(=O)CC2(CCCC2)CC(=O)N1 [Compound 127]
< 100 nM | O=C1CNC(=O)[C@@H](Cc2ccc(NC(=O)[C@H](Cc3ccccc3Cl)NC(=O)c3ccncc3)cc2)NC(=O)CC2(CCCC2)CC(=O)NCCCCCN1 [Compound 208]
< 100 nM | O=C1CCCNC(=O)[C@@H](Cc2ccc(NC(=O)[C@H](Cc3ccccc3Cl)NC(=O)Cc3ccccc3)cc2)NC(=O)CC2(CCCC2)CC(=O)N(CCO)CCCCCN1 [Compound 172]
< 100 nM | COC(=O)[C@H]1CCCCNC(=O)C(C)(C)NC(=O)[C@@H](Cc2ccc(NC(=O)[C@H](Cc3ccccc3Cl)NC(=O)Cc3ccccc3)cc2)NC(=O)CC2(CCCC2)CC(=O)N1 [Compound 145]
< 100 nM | O=C1CNC(=O)[C@@H](Cc2ccc(NC(=O)[C@H](Cc3ccccc3Cl)NC(=O)Cc3ccccc3)cc2)NC(=O)CC2(CCCC2)CC(=O)NCCCN1 [Compound 156]
< 100 nM | O=C1CCCNC(=O)[C@@H](Cc2ccc(NC(=O)[C@H](Cc3ccccc3Cl)NC(=O)Cc3ccccc3)cc2)NC(=O)CC2(CCCC2)CC(=O)NCCCCCN1 [Compound 161]
100 to 1000 nM | COC(=O)[C@@H]1CCCCNC(=O)CCCNC(=O)[C@@H](Cc2ccc(NC(=O)[C@H](Cc3ccc(-c4ccccc4)cc3)NC(=O)c3ccccc3)cc2)NC(=O)CC2(CCCC2)CC(=O)N1 [Compound 125]
100 to 1000 nM | COC(=O)[C@@H]1CCCCNC(=O)CCCCCNC(=O)[C@@H](Cc2ccc(NC(=O)[C@H](Cc3ccccc3F)NC(=O)Cc3ccccc3)cc2)NC(=O)CC2(CCCC2)CC(=O)N1 [Compound 111]
100 to 1000 nM | COC(=O)[C@H]1CCCCNC(=O)CCCNC(=O)[C@@H](Cc2ccc(NC(=O)[C@H](Cc3ccccc3)NC(=O)Cc3ccccc3)cc2)NC(=O)CC2(CCCC2)CC(=O)N1 [Compound 138]
100 to 1000 nM | COC(=O)[C@@H]1CCCCNC(=O)CCCNC(=O)[C@@H](Cc2ccc(NC(=O)[C@H](Cc3ccc(F)cc3)NC(=O)c3ccccc3)cc2)NC(=O)CC2(CCCC2)CC(=O)N1 [Compound 119]
> 10000 nM | O=C1CCCNC(=O)[C@H](Cc2ccc(NC(=O)[C@H](Cc3ccccc3F)NC(=O)Cc3ccccc3)cc2)NC(=O)CC2(CCCC2)CC(=O)N[C@@H](C(=O)O)CCCCN1 [Compound 103]
100 to 1000 nM | O=C1CCCNC(=O)[C@H](Cc2ccc(NC(=O)[C@H](Cc3ccccc3F)NC(=O)Cc3ccccc3)cc2)NC(=O)CC2(CCCC2)CC(=O)N[C@H](C(=O)O)CCCCN1 [Compound 174]
< 100 nM | O=C1CCCNC(=O)[C@@H](Cc2ccc(NC(=O)[C@H](Cc3ccccc3Cl)NC(=O)Cc3ccccc3)cc2)NC(=O)CC2(CCCC2)CC(=O)NCCCCN1 [Compound 166]
1000 to 10000 nM | CC[C@H](C)[C@H](NC(=O)c1ccccc1)C(=O)Nc1ccc(C[C@H]2NC(=O)CC3(CCCC3)CC(=O)N[C@H](C(=O)OC)CCCCNC(=O)CCCNC2=O)cc1 [Compound 123]
< 100 nM | COC(=O)[C@@H]1CCCCNC(=O)CNC(=O)[C@@H](Cc2ccc(NC(=O)[C@H](Cc3ccccc3F)NC(=O)c3ccccc3)cc2)NC(=O)CC2(CCCC2)CC(=O)N1 [Compound 151]
1000 to 10000 nM and 100 to 1000 nM | COC(=O)[C@@H]1CCCCNC(=O)CCCNC(=O)[C@H](Cc2ccc(NC(=O)[C@H](Cc3ccccc3F)NC(=O)Cc3ccccc3)cc2)NC(=O)CC2(CCCC2)CC(=O)N1 [Compound 105]
100 to 1000 nM | COC(=O)[C@@H]1CCCCNC(=O)CCCNC(=O)[C@@H](Cc2ccc(NC(=O)[C@H](Cc3ccccc3)NC(=O)Cc3ccccc3)cc2)NC(=O)CC2(CCCC2)CC(=O)N1 [Compound 114]
< 100 nM | O=C1CCNC(=O)[C@@H](Cc2ccc(NC(=O)[C@H](Cc3ccccc3Cl)NC(=O)Cc3ccccc3)cc2)NC(=O)CC2(CCCC2)CC(=O)NCCCCCN1 [Compound 160]
1000 to 10000 nM | COC(=O)[C@H]1CCCCNC(=O)CCCNC(=O)[C@H](Cc2ccc(NC(=O)[C@H](Cc3ccccc3F)NC(=O)Cc3ccccc3)cc2)NC(=O)CC2(CCCC2)CC(=O)N1 [Compound 101]

Kd | Compound
< 100 nM | COC(=O)[C@H]1CCCCNC(=O)CNC(=O)[C@@H](Cc2ccc(NC(=O)[C@H](Cc3ccccc3F)NC(=O)c3ccccc3)cc2)NC(=O)CC2(CCCC2)CC(=O)N1 [Compound 150]
< 100 nM | CC(=O)N[C@@H](Cc1ccccc1Cl)C(=O)Nc1ccc(C[C@H]2NC(=O)CC3(CCCC3)CC(=O)N(CCO)CCCCCNC(=O)CCNC2=O)cc1 [Compound 171]
< 100 nM | CC(=O)N[C@@H](Cc1ccccc1Cl)C(=O)Nc1ccc(C[C@H]2NC(=O)CC3(CCCC3)CC(=O)NCCCCCNC(=O)CCNC2=O)cc1 [Compound 154]
< 100 nM | CC(=O)N[C@@H](Cc1ccccc1Cl)C(=O)Nc1ccc(C[C@H]2NC(=O)CC3(CCCC3)CC(=O)N(CCO)CCCCCNC(=O)CCCNC2=O)cc1 [Compound 173]
< 100 nM | O=C1CCNC(=O)[C@@H](Cc2ccc(NC(=O)[C@H](Cc3ccccc3Cl)NC(=O)Cc3ccccc3)cc2)NC(=O)CC2(CCCC2)CC(=O)N(CCO)CCCCCN1 [Compound 170]
< 100 nM | CC(=O)N[C@@H](Cc1ccccc1Cl)C(=O)Nc1ccc(C[C@H]2NC(=O)CC3(CCCC3)CC(=O)NCCCCCNC(=O)CCCNC2=O)cc1 [Compound 155]
< 100 nM | O=C1CCNC(=O)[C@@H](Cc2ccc(NC(=O)[C@H](Cc3ccccc3Cl)NC(=O)Cc3ccccc3)cc2)NC(=O)CC2(CCCC2)CC(=O)NCCCN1 [Compound 157]
100 to 1000 nM | CC1(C)NC(=O)[C@@H](Cc2ccc(NC(=O)[C@H](Cc3ccccc3Cl)NC(=O)Cc3ccccc3)cc2)NC(=O)CC2(CCCC2)CC(=O)N[C@@H](C(=O)O)CCCCNC1=O [Compound 182]
100 to 1000 nM | COC(=O)[C@@H]1CCCCNC(=O)CCCNC(=O)[C@@H](Cc2ccc(NC(=O)[C@H](Cc3cccc(F)c3)NC(=O)c3ccccc3)cc2)NC(=O)CC2(CCCC2)CC(=O)N1 [Compound 117]
1000 to 10000 nM | COC(=O)[C@H]1CCCCNC(=O)CCCNC(=O)[C@H](Cc2ccc(NC(=O)[C@H](Cc3ccccc3)NC(=O)Cc3ccccc3)cc2)NC(=O)CC2(CCCC2)CC(=O)N1 [Compound 104]
< 100 nM | COC(=O)[C@H]1CCCCNC(=O)CCCNC(=O)[C@@H](Cc2ccc(NC(=O)[C@H](Cc3ccccc3F)NC(=O)c3ccccc3)cc2)NC(=O)CC2(CCCC2)CC(=O)N1 [Compound 136]
< 100 nM | O=C1CNC(=O)[C@@H](Cc2ccc(NC(=O)[C@H](Cc3ccc(Cl)cc3Cl)NC(=O)Cc3ccccc3)cc2)NC(=O)CC2(CCCC2)CC(=O)NCCOCCN1 [Compound 210]
100 to 1000 nM | COC(=O)[C@@H]1CCCCNC(=O)CCCNC(=O)[C@@H](Cc2ccc(NC(=O)[C@H](Cc3ccc(-c4ccccc4)cc3)NC(=O)Cc3ccccc3)cc2)NC(=O)CC2(CCCC2)CC(=O)N1 [Compound 124]
> 10000 nM | O=C1CC2(CCCC2)CC(=O)N[C@@H](C(=O)O)CCCCNC(=O)[C@H](Cc2ccc(NC(=O)[C@H](Cc3ccccc3F)NC(=O)Cc3ccccc3)cc2)N1 [Compound 102]
< 100 nM | CC(=O)N[C@@H](Cc1ccccc1Cl)C(=O)Nc1ccc(C[C@H]2NC(=O)CC3(CCCC3)CC(=O)NCCCCNC(=O)CCNC2=O)cc1 [Compound 165]
100 to 1000 nM | COC(=O)[C@H]1CCCCNC(=O)[C@H](CO)NC(=O)[C@@H](Cc2ccc(NC(=O)[C@H](Cc3ccccc3Cl)NC(=O)c3ccccc3)cc2)NC(=O)CC2(CCCC2)CC(=O)N1 [Compound 148]
< 100 nM | CC(=O)N[C@@H](Cc1ccccc1Cl)C(=O)Nc1ccc(C[C@H]2NC(=O)CC3(CCCC3)CC(=O)NCCCCNC(=O)CNC2=O)cc1 [Compound 163]
< 100 nM | CC(=O)N[C@@H](Cc1ccccc1Cl)C(=O)Nc1ccc(C[C@H]2NC(=O)CC3(CCCC3)CC(=O)NCCCCNC(=O)CCCNC2=O)cc1 [Compound 167]
< 100 nM | COC(=O)[C@H]1CCCCNC(=O)C(C)(C)NC(=O)[C@@H](Cc2ccc(NC(=O)[C@H](Cc3ccccc3Cl)NC(=O)c3ccccc3)cc2)NC(=O)CC2(CCCC2)CC(=O)N1 [Compound 146]
